Biological target: Carbonic anhydrase 1 (Homo sapiens, UniProt P00915)
Sequence (P00915 whole entry): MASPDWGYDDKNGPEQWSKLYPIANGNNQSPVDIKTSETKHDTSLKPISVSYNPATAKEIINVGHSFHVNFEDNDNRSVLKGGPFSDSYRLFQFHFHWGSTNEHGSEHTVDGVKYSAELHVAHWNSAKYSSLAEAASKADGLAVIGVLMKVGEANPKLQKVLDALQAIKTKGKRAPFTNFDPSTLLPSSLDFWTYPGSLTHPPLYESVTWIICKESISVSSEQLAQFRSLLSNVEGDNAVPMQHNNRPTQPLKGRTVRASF

With O=[Se](=O)(O)O [SODIUM SELENATE] the Ki was 570 µM.
